Patent publication US12521425B2, “Method of liver cancer treatment with safranal-based formulations” (priority 2019, dated 2026)

Experiments:
[1] = tested on: HepG2 cells; assay: Cell morphology, crystal violet; type: cell-based; conditions: HepG2, increasing doses, 24 hours
Method: Cell morphology. HepG2 were seeded at a density of 0.25×10^6 cells/well in 6-well plate. After allowing the cell to attach, HepG2 cells were treated without or with different concentrations of safranal (30, 50, 100, 500, 700 μM) for 24 hrs. After which, cells were fixed and stained with crystal violet. The morphology of the cells was assessed after being fixed and stained with 0.5% crystal violet using IX53 microscope (Olympus).

[2] = tested on: HepG2 cells; assay: Colony formation assay; type: cell-based; conditions: HepG2, 30-100 μM for 24 hours
Method: Colony formation. HepG2 cell were seeded at a density of 1000 cells/6-well plate, and left to incubate for 24 hours to allow attachment before being treated with different concentrations of safranal (30, 50, 100 μM) for 24 hours. After which, culture media containing safranal was replaced by fresh growth media without safranal. Culture media was replenished every 3 days, until visible colonies were formed. Colonies were fixed with absolute methanol, then stained with 0.5% crystal violet. Colonies were then imaged and analyzed using ImageJ plugin ColonyArea. Results are represented as the percent of area occupied by colonies. To confirm, an absorption-based method was carried out to validate results obtained from ImageJ. Briefly, stained colonies were treated with 10% acetic acid solution to dissolve the crystal violet stain. After which, 100 μL of each triplicate sample was transferred to a 96-well plate (in triplicates), and absorbance was measured using an Epoch microplate spectrophotometer (BioTek). *p≤0.05, **p≤0.001, ***p≤0.0001

[3] = tested on: HepG2 cells; assay: Cell cycle analysis by flow cytometry; type: cell-based; conditions: HepG2, 500 μM; for fraction of subG1 cells: DMSO control 0.9%
Method: Cell cycle analysis. HepG2 cells were seeded at density of 3×10^6 cells per flask in complete growth medium and were allowed to attach overnight. After which, cells were treated with 500 μM of safranal for different time intervals (6-48 hours). At the indicated time intervals, cells were collected by incubation with trypsin and washed twice with PBS. Collected cells were fixed in 70% ethanol, treated with RNase and stained with propidium iodide. Cell cycle distribution was analyzed by flow cytometry in a FACS scan (Becton Dickenson, Germany).

[4] = tested on: HepG2 cells; assay: Western blotting of safranal-treated cells; type: cell-based
Method: Western blotting. HepG2 cells were seeded at a density of 1×10^6 cells/100 mm plate and allowed to attach before being treated with safranal. Cells were treated with 500 μM of safranal for different time intervals (6-48 hours) for time-dependent experiments. Whole cell lysates were separated using 10-15% SDS polyacrylamide gel electrophoresis. Proteins were transferred onto PVDF membranes prior to incubation with various primary antibodies p-histone H3, Cdc2, Cyclin B1, CDC25B, p21, p53, H2AX, p-H2AX, TOP1, TDP1, Cleaved PARP1, PCNA, HDAC1, HDAC2, Cleaved Caspase-9, Cleaved Caspase-8, Bax, Bcl-2, GRP78, ATF6, IRE1, PERK, p-eIF2S1, […], and CHOP. GAPDH, β-actin, and α-Tubulin were used as loading controls. Protein bands were detected using WesternSure Chemiluminescent Substrate (LI-COR) and C-DiGit blot scanner (LI-COR).

[5] = tested on: HepG2 cells; assay: Annexin V binding assay; type: cell-based; conditions: HepG2, 500 μM, after 48 hours; increase from 8%
[6] = tested on: HepG2 cells; assay: Caspase-3 and 7 activities (Caspase-Glo 3/7); type: cell-based; conditions: HepG2, 500 and 700 μM, 24 hours
Method: Caspase-3 and 7 activities. HepG2 were seeded at a density of 5000 cells/well in a 96-well plate, and were allowed to attach. After which, cells were treated with 500 and 700 μM of safranal for 24 hours. Caspase-3 and 7 activities were detected using Caspase-Glo® 3/7 Assay kit according to manufacturer instructions (Promega). Luminescent signal was detected using GloMax Discover System (Promega).

[7] = tested on: DEN-induced hepatic neoplasia; assay: Liver gross and histopathological examination in DEN-induced HCC model; type: in vivo, male Wistar rats; conditions: HCC rats
Method: A modified version of the protocol described by DePeralta et al. (2016) and Schiffer et al. (2005) was used here to establish the hepatocarcinogenesis model.
On the first 15 weeks, the control PBS group was treated with 1×PBS, whereas the experimental groups were given an intraperitoneal injection (IP) of 50 mg/kg of diethylnitrosoamine (DEN, Sigma Aldrich), a widely used chemical for inducing cancer, once a week. DEN was diluted with 1×PBS. Following a one-week break (week 16), the next three weeks (weeks 17 to 19) of treatment commenced. All drugs were administrated by oral gavage. All doses were chosen according to literature (Alsaied et al., 2014; Karafakioglu et al., 2017). For the HCC+sorafenib group, the drug (Carbosynth Limited) was administered at a dose of 10 mg/kg, five days a week. For the HCC+safranal group, the drug (Sigma Aldrich) was administered at a dose of 200 mg/kg, five days a week. For the HCC+safranal+sorafenib group, the drugs were administered at a dose of 200 mg/kg safranal+10 mg/kg sorafenib, five days a week. Both safranal and sorafenib were diluted with 1×PBS and drops of Tween 80. […] After 24-hours from last treatment, the rats were euthanized by mild diethyl ether and dissected in equal conditions. Blood and whole liver were collected.
Liver sample specimens were fixed in 10% neutral buffered formalin, dehydrated in a series of graded ethanol, embedded in paraffin blocks, and cut into 3 μm-thick sections. To detect histopathological changes, sections were stained with hematoxylin and eosin (H&E), and reticulin stain kit according to the protocol provided (Abcam), then examined under light microscope (Ozkececi et al., 2016). Blinded examination of tissue samples was carried out by a pathologist from Tawam Hospital—United Arab Emirates.

CC1=C(C=O)C(C)(C)CC=C1 [safranal]
morphological changes [1]: morphological alterations including more rounded cell shapes, cell shrinkage, and increased detachment | colony formation [2]: inhibited colony formation of HepG2 cells in a dose-dependent manner | cell cycle distribution ([3]; 6 and 12 hours post treatment): G2/M phase arrest | cell cycle distribution ([3]; 24 hours): S-phase arrest | fraction of subG1 cells ([3]; after 24 hours): 6.3% | fraction of subG1 cells ([3]; after 48 hours): 26.2% | HDAC1 expression ([4]; HepG2, 500 μM): inhibited | HDAC2 expression ([4]; HepG2, 500 μM): remained unchanged | Cdc2 expression ([4]; HepG2, 500 μM, 6-48 hours): inhibit Cdc2 expression starting at 12 hours | H2AX expression ([4]; HepG2, 500 μM, 6-48 hours): remained unchanged | expression of Cyclin B1 and CDC25B ([4]; HepG2, 500 μM, 6-48 hours): inhibiting expression of Cyclin B1 and CDC25B starting at 6 hours | expression of phosphorylated histone H3 ([4]; HepG2, 500 μM, 6-48 hours): inhibited dramatically | p-H2AX (DNA damage marker) ([4]; HepG2, 500 μM, 6-48 hours): observed starting at 6 hours | proliferation marker PCNA ([4]; HepG2, 500 μM, 6-48 hours): inhibition | CHOP/DDIT3 and phosphorylated eIF2α ([4]; HepG2, 500 μM, up to 48 hours): upregulated | expression of p21 ([4]; HepG2, 500 μM, up to 48 hours): inhibited | expressions of GRP78 and of p27 ([4]; HepG2, 500 μM, up to 48 hours): induced | main sensors of UPR, PERK, MEL and ATF6 ([4]; HepG2, 500 μM, up to 48 hours): general upregulation trend | TDP1 level ([4]; HepG2, 6, 12, 24, 48 hours): lower levels | TOP1 level ([4]; HepG2, 6, 12, 24, 48 hours): higher levels | caspase-8 cleavage ([4]; HepG2, time-based): cleaved starting at 24 hours | caspase-9 cleavage ([4]; HepG2, time-based): cleaved starting at 12 hours | ratio of Bax to Bcl-2 ([4]; HepG2, time-based): increased | number of dead cells (annexin V) [5]: 31% | activity of executioner caspases-3 and -7 [6]: increased | area of neoplastic foci (histology) ([7]; H&E, versus HCC): restoration of the normal architecture of the liver | number of liver nodules / lesions ([7]; comparing to HCC animals): reduced lesions | reticular fibers (reticulin staining) ([7]; comparing to HCC group): reduced reticular fibers' breakage and restored their morphology
